# According to US20210401931A1, “METHODS AND MATERIALS FOR TREATING CANCER” (Mayo Foundation for Medical Education and Research, priority 2018, published 2021):
# Ends that are not written are not given here.
# What was measured:
# [1] = test system: NF-κB site of the PD-L1 promoter; assay: EMSA with biotin-labeled PD-L1-prom oligonucleotide and PC-3 nuclear extracts; format: cell-based, human; conditions: PC-3 cells expressing peptide
# Description: FIGS. 11A-H. (A) Heatmap showing differentially expressed genes (FDR<0.01) between palbociclib treatment versus DMSO and knockdown RB1 versus control. Gene expression values (FPKM) were Z-score normalized. FPKM, Fragments Per Kilobase of transcript per Million mapped reads. (B) UCSC Genome Browser screenshots of meta-analysis of published RB ChIP high throughput sequencing (ChIP-seq) data showing RB binding to CD274 (PD-L1) gene locus in K562 cells. PD-L1-prom oligonucleotide DNA containing NF-κB binding sequence was shown in the RB binding peak in the PD-L1 gene, the corresponding mutant PD-L1-prom oligonucleotide DNA was shown below. FIG. 11B discloses SEQ ID NOS 279-280, respectively, in order of appearance. (C) ChIP-qPCR analysis of RB binds at the PD-L1 promotor in PC-3 cells. All data were shown as mean values±SD (n=3). *** P<0.001. (D) ChIP-reChIP analysis examining the co-localization of p65 and RB in the PD-L1 promoters. All data were shown as mean values±SD (n=3). ** P<0.01. […]
# FIGS. 21A-N. Effect of RB depletion, cell cycle, and RB-N S249/T252 phospho-mimicking peptide on PD-L1 expression in cell lines of various cancer types. […] 48 hours after infection, PD-L1 expression was determined by western blotting (A), RT-qPCR (B), and FACS (C). […] (D) Pd-l1 protein and mRNA levels were determined by western blotting in primary SKO and DKO mouse prostate tumor cell lines. […]
# p65-N = target: T1, p65-N (Homo sapiens, UniProt Q04206); assay: In vitro protein binding assay of RL peptide with GST-p65-N; conditions: compared to phosphorylation-resistant mutant
# T1 construct: made in house
# T1 sequence (Q04206 19-306 limits assumed): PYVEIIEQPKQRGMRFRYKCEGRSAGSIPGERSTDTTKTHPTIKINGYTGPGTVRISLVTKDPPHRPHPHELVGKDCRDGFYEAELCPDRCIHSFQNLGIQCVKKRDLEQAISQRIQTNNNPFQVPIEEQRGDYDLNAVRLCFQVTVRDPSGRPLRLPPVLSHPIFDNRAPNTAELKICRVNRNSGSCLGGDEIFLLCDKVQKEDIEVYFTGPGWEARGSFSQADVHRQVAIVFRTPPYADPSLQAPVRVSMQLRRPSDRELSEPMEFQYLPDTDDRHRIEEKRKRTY
substance,measurement,setting,value
"RL-S249D/T252D: S249/T252 phospho-mimicking R-Linker (RL) peptide: fragment of RB-N containing 21 amino acids surrounding S249/T252, expressed SFB-tagged or by lentivirus (NGDPRDPRRGQNRSARIAKQL; also: expressed SFB-tagged (tag left off))",p65 binding to the cognate DNA in the PD-L1 promoter,[1],inhibition
same,binding of in vitro transcribed and translated RL peptide to p65-N,p65-N,much stronger
